Assay results taken from publication PMC5078025, “Necrosis-inducing peptide has the beneficial effect on killing tumor cells through neuropilin (NRP-1) targeting” (Oncotarget, 2016).
Bridge positions count the residues as written; N and C are the ends. Ends that are not written are not given here.

Tests used:
BALB/c mice = assay: Toxicity and movement activity after i.v. injection; conditions: for Movement Activities: BALB/c (around 20 gm) mice, i.v. single dose 75 μl of 1 mM, within 30 minutes; for toxicity by mouse movements: BALB/c mice, i.v. single dose 75 μl of 1 mM per mouse, movements within 30 minutes, observed up to one week
Protocol: To design a MTD peptide anti-cancer drug, the MTD peptide was fused to various known tumor-homing motifs through its N-terminal or C-terminal region, and a linker was introduced between these two motifs to impart flexibility and minimize steric hindrance (Figure 1A, Supplementary Table S1). The MTD peptides fused with tumor-homing motifs (hereafter designated TU:MTDs) were synthesized as linear or cyclic entities using L-amino acids (Supplementary Table S1), and were evaluated for their killing activity using CT26 cells in vitro (Supplementary Figure S1). […] Thus, BALB/c mouse movements were also evaluated within 30 minutes of the intravenous injection of a single dose of 75 μl of 1 mM TU:MTDs per mouse. […] We also searched for a TU:MTD with a potent in vivo effect by observing tumor volumes in three BALB/c mice bearing CT26 adenocarcinoma that were injected with 100 μl of 1 mM TU:MTDs per day for 2 or 3 consecutive days (Figure 1B). […] The tumor-homing motif of TU17:MTD has a “RPARPAR” sequence containing the C-end rule (CendR) element that has known to bind to neuropilin-1 (NRP-1), although the “RPARPAR” sequence is located at the N-terminus of the MTD rather than at the C-terminus. […]
1 mM) were i.v. injected into BALB/c (around 20 gm) mice at a single dose. “Slow” means not moving around in the cage.
“Normal” means normally moving around in the cage. “Toxic” means necrosis in tail vein within 2 ~ 3 days after injection.
Abbreviation: NR; no regression, ND; not determined. […]

CT26 cells = assay: XTT cell viability / killing activity in CT26 cells; format: cell-based; conditions: CT26 cells in vitro, TU:MTDs 0 ~ 20 μM, 30 minutes
Protocol: Figure 1 Identification of TU17:MTD as a tumor targeting peptide (A) Schematic diagram of the fusion peptides consisting of the tumor-homing motif, linker, and mitochondrial targeting domain (MTD). (B) Tumors were generated over 2 weeks after s.c. injection of CT26 cells into the backs of BALB/c mice. When tumor volumes reached palpable size, the indicated TU:MTDs (100 μl of 1 mM TU:MTDs) or PBS were administrated i.v. twice or three times. […] Arrows indicate the points of peptide injection. P values < 0.02 (control group vs TU17:MTD at day 5, 6, 7, 8, and 9) (C) HCT116, HeLa, A549, MCF-7, PC3, and BJAB cells were treated with TU17:MTD (0 ~ 20 μM) for 30 minutes, and cell viability was monitored using XTT assays. *P < 0.05 (D) Primary splenocytes and macrophages were treated with TU17:MTD (0 ~ 20 μM) for 30 minutes, and cell viability was monitored by XTT assay. *P < 0.05 (E) CT26 cells were treated with R8:MTD, TU17:MTD, TU17-2:MTD or TU17:MTD^4A (0 ~ 40 μM) for 4 hours, and cell viability was monitored by XTT assay. Results in C to E are expressed as means ± SD (triplicates), and are representative of at least two independent experiments. P values are for experimental groups versus controls and were calculated using Dunnett's t-test. *P < 0.05.
Figure 5 Anti-NRP-1 antibody blocks TU17:MTD-induced necrosis (A) CT26 cells (2 × 10^4 cells/cm^2) were treated with TU17:MTD-FAM (500 nM) peptide or TU17^mut:MTD (500 nM) peptide. […] The viability was measured by using the XTT assay. *P < 0.05, **P < 0.01. […] The percentage of FAM-positive cells (%) were determined (n = over 200 cells). *P < 0.05, ***P < 0.001.
Cells were cultured in 96 well plates (2 × 10^5) overnight and treated with TU:MTDs. Cell viabilities were assessed using a XTT-based colorimetric assay kit, according to the manufacturer's instructions. […]
Supplementary FigureS1: Killing activity of TU:MTDs in CT26 cells. CT26 cells were treated with TU:MTDs (0 ~ 20 μM) for 30 minutes, and cell viability was monitored using XTT assays. […]

Row | Sequence | Movement Activities (BALB/c mice) | toxicity by mouse movements (BALB/c mice) | morphological features of necrosis (CT26 cells)
1 | KLLNLISKLFCRGDKRLYDC (disulfide 11-20 (inferred)) [TU11:MTD] | Slow | toxic | induced the typical morphological features of necrosis
2 | CNGRCVSGCAGRCGGKLLNLISKLF [TU2:MTD, MTD peptide fused with tumor-homing motif, linear] | Normal | no apparent toxicities | induced the typical morphological features of necrosis
